Values joined by “and” are separate entries in the source; they are usually repeats but may differ in a detail not shown here. Identical values can stand only once.
Key:
[1] = molecular target: Metabotropic glutamate receptor 2 (Homo sapiens, UniProt Q14416); assay: Antagonistic activity against stimulation of GTP (gamma) 35 S binding by glutamate in membranes from CHO cells expressing human Metabotropic glutamate receptor 2; format: cell membranes
[2] = Hill coefficient was determined
[3] = Effect of compound on GluR mediated phosphoinositol metabolisim at conc of 50 uM of mGluR5a; format: functional
[4] = Effect of compound on GluR mediated phosphoinositol metabolisim at conc of 10 uM of mGluR5a; format: functional
[5] = Effect of compound on GluR mediated phosphoinositol metabolisim at conc of 50 uM of GluR1b; format: functional
[6] = Effect of compound on GluR mediated phosphoinositol metabolisim at conc of 10 uM of GluR1b; format: functional
[7] = molecular target: Metabotropic glutamate receptor 3 (Rattus norvegicus, UniProt P31422); assay: Compound was evaluated for the inhibition of binding of [3H]glutamate against rat recombinant Metabotropic glutamate receptor 3 expressed in HEK293 cells; format: cell-based
Metabotropic glutamate receptor 3, sequence (P31422 whole entry): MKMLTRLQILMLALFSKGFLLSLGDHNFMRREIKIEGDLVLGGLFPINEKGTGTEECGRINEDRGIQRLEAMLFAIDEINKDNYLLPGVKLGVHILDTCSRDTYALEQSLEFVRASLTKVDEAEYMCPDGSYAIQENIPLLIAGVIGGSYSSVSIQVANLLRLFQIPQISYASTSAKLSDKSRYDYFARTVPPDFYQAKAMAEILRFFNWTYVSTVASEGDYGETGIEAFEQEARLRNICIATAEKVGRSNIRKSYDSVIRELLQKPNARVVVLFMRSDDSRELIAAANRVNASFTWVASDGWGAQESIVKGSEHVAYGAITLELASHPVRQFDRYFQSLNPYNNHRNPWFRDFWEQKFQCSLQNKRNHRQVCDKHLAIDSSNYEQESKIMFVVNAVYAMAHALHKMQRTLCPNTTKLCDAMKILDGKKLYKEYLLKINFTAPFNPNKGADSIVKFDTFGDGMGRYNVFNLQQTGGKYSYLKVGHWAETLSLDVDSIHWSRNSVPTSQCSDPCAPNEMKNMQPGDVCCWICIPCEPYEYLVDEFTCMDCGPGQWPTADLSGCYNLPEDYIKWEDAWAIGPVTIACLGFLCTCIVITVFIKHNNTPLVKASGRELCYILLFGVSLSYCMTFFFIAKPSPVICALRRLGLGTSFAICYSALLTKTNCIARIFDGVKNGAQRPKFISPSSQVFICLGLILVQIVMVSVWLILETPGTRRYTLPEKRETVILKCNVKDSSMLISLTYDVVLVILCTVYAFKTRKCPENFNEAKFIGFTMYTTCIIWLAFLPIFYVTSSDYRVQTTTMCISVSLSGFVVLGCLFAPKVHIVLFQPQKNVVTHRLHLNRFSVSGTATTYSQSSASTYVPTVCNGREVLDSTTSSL

Metabotropic glutamate receptor 2, sequence (Q14416 whole entry): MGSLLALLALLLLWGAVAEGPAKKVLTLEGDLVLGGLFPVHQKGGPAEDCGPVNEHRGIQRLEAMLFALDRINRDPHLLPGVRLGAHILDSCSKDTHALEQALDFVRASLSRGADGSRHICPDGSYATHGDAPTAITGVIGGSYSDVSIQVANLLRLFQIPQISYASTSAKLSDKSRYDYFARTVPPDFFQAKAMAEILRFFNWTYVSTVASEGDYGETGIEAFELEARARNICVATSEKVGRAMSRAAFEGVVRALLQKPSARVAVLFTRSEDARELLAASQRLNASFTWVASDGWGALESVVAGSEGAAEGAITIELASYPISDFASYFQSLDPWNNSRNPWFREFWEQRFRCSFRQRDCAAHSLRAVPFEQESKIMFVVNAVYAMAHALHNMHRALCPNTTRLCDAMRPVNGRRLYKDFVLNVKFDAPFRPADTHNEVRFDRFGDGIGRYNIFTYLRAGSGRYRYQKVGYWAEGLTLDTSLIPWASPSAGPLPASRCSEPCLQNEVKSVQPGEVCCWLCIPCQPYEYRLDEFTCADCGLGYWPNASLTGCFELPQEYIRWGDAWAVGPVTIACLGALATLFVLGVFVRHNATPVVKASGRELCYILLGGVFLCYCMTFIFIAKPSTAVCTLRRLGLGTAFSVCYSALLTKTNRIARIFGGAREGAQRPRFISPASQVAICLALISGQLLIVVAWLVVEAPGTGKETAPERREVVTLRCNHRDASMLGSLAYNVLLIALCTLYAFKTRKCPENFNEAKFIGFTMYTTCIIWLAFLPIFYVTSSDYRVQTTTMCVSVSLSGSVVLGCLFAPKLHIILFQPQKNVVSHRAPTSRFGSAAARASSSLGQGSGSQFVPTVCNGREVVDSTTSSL

| IC50 [1] [nM] | Ki [1] [nM] | Hill coefficient [2] | IC50 [7] [nM] | SMILES | Activity [3] [%] | Activity [4] [%] | Activity [5] [%] | Activity [6] [%] |
| --- | --- | --- | --- | --- | --- | --- | --- | --- |
| 200 | 85 | 0.92 and 1.09 | 75 | NC(C(=O)O)[C@H]1[C@@H](CCC2c3ccccc3Oc3ccccc32)[C@@H]1C(=O)O (stereo not given in full) | 91 | 103 | 111 | 110 |
|  | 2700 | 0.93 and 0.78 | 1300 | NC(C(=O)O)[C@H]1[C@@H](CC2c3ccccc3Oc3ccccc32)[C@@H]1C(=O)O (stereo not given in full) | 94 | 101 | 95 | 131 |

Reference: ChEMBL document CHEMBL1134156, “Design, synthesis and preliminary evaluation of novel 3'-substituted carboxycyclopropylglycines as antagonists at group 2 metabotropic glutamate receptors” (Bioorg Med Chem Lett, 2001)
